Laboratory results as given in article PMC3020970, “K70Q Adds High-Level Tenofovir Resistance to “Q151M Complex” HIV Reverse Transcriptase through the Enhanced Discrimination Mechanism” (PLoS ONE, 2011).
Where “and” joins values, the source holds several entries; their conditions need not be identical. Identical values can stand only once.

Tests used:
[1] = test system: HIV-1 clinical isolate 1 (Q151Mc-containing); experiment: Single-cycle drug susceptibility assay (MAGIC-5 cells), clinical isolate 1; format: cell-based; conditions: Human immunodeficiency virus 1; clinical isolate 1, MAGIC-5 cells
Method: (§1) HIV was isolated from fresh plasma immediately after collection of clinical samples from study participants at the outpatient clinic of the AIDS Clinical Center (ACC), International Medical Center of Japan. The Institutional Review Board approved this study (IMCJ-H13-80) and a written consent was obtained from all participants.
(§2) Susceptibilities to various RT inhibitors were determined using the MAGIC-5 cells which are HeLa cells stably transfected with a β-galactosidase gene under the control of an HIV long terminal repeat promoter, and with vectors that express the CD4 receptor and the CCR5 co-receptor under the control of the CMV promoter as described previously. Briefly, MAGIC-5 cells were infected with diluted virus stock (100 blue forming units) in the presence of increasing concentrations of RT inhibitors, cultured for 48 h, fixed, and stained with X-Gal (5-bromo-4-chloro-3-indolyl-β-D-galacto-pyranoside). The stained cells were counted under a light microscope.

[2] = test system: HIV-1 clinical isolate 2 (Q151Mc + K70Q); experiment: Single-cycle drug susceptibility assay (MAGIC-5 cells), clinical isolate 2; format: cell-based; conditions: Human immunodeficiency virus 1; clinical isolate 2, MAGIC-5 cells
Method: as §1, §2

HIV-1 WT = experiment: Single-cycle drug susceptibility assay (MAGIC-5 cells), recombinant WT clone; format: cell-based; conditions: Human immunodeficiency virus 1, Table S2
Method: (§3) The NL4-3-based molecular clone was constructed by replacing the pol-coding region with the HIV-1 BH10 strain. […] Each molecular clone was transfected into COS-7 cells. Cells were grown for 48 h, and culture supernatants were harvested and stored at −80°C until use.
as §2

HIV-1 Q151Mc/K70N = experiment: Single-cycle drug susceptibility assay (MAGIC-5 cells); format: cell-based
Method: as §3, §2

HIV-1 Q151Mc/K70G = experiment: as above; format: cell-based; conditions: Human immunodeficiency virus 1, MAGIC-5; Q151Mc/K70G
Method: as §3, §2

HIV-1 K70Q = experiment: as above; format: cell-based
Method: as §3, §2

HIV-1 K70T = experiment: as above; format: cell-based
Method: as §3, §2

HIV-1 Q151Mc/K70Q = experiment: as above; format: cell-based; conditions: Human immunodeficiency virus 1, MAGIC-5; Q151Mc/K70Q
Method: as §3, §2

HIV-1 Q151Mc/K70T = experiment: as above; format: cell-based
Method: as §3, §2

HIV-1 K70N = experiment: as above; format: cell-based
Method: as §3, §2

HIV-1 K70G = experiment: as above; format: cell-based
Method: as §3, §2

HIV-1 Q151Mc = experiment: as above; format: cell-based; conditions: Human immunodeficiency virus 1, MAGIC-5
Method: as §3, §2

HIV-1 K70R = experiment: as above; format: cell-based
Method: as §3, §2

HIV-1 Q151Mc/K70E = experiment: as above; format: cell-based
Method: as §3, §2

HIV-1 Q151Mc/K70R = experiment: as above; format: cell-based
Method: as §3, §2

HIV-1 K70E = experiment: as above; format: cell-based
Method: as §3, §2

HIV-1 NL4-3 strain (WT) = experiment: microbe, parasite or virus in culture; format: cell-based; conditions: Human immunodeficiency virus 1, NL43; WT, MAGIC-5 cells, Table S1; read-out: EC50
Method: as §2

HIV-1 RT WT = target: T1, HIV-1 RT WT (Human immunodeficiency virus type 1 group M subtype B, UniProt P03366); experiment: Pre-steady state kinetics of binding and incorporation; format: biochemical
T1 construct: made in house; host or cells: Escherichia coli BL21
Method: (§4) Determination of active site concentrations in the different preparations of WT and mutant RTs were performed using pre-steady state burst experiments. […] The reactions were quenched at various times (10 ms to 5 s) by adding EDTA to a final concentration of 50 mM. The amounts of product (P18-dAMP) were quantitated and fit to the following burst equation: [drawing 1] (1) where A is the amplitude of the burst phase that represents the RT-DNA complex at the start of the reaction, k obs is the observed burst rate constant for dNTP incorporation, k ss is the steady state rate constant, and t is the reaction time. The rate constant of the linear phase (kcat) can be estimated by dividing the slope of the linear phase by the enzyme concentration. The active site concentration and template/primer binding affinity (KD-DNA) were determined by plotting the amplitude (A) against the concentration of template/primer. The data were fit using non-linear regression to a quadratic equation: [drawing 2] (2) where KD is the dissociation constant for the RT-DNA complex, and [RT] is the concentration of active polymerase molecules. Subsequent biochemical experiments were performed using corrected active site concentrations, [43].
(§5) HIV-1 RT (50 nM active sites) was pre-incubated with 50 nM T31/P18 in one syringe (Syringe A), whereas varying concentrations of dNTP and 10 mM MgCl2 were kept in another syringe (Syringe B). The solutions were rapidly mixed to initiate reactions, which were subsequently quenched at various times (5 ms to 10 s) by adding EDTA to a final concentration of 50 mM. The products from each quenched reaction were resolved, quantitated, and plotted as described above. The data were fit by non-linear regression to the burst equation (Eq 1).
(§6) To obtain the dissociation constant KD-dNTP for dNTP binding to the RT-DNA complex, the observed burst rates (kobs) were fit to the hyperbolic equation (Eq. 3) using nonlinear regression: [drawing 3] (3) where kpol is the optimal rate of dNTP incorporation.
(§7) The kinetics of TFV incorporation by the WT and mutant enzymes were carried out in a manner similar to that employed for natural dNTP substrate except the time of reactions. It was noted that the mutant enzymes required longer time to incorporate TFV compared to the WT HIV-1 RT (detailed in the Results section).

HIV-1 RT Q151Mc = target: T2, HIV-1 RT Q151Mc (Human immunodeficiency virus type 1 group M subtype B, UniProt P03366, A661V/F676L/F715Y/Q750M/V674I); experiment: as above; format: biochemical
T2 construct: made in house; host or cells: Escherichia coli BL21
Method: as §4, §5, §6, §7

HIV-1 RT K70Q/Q151Mc = target: T3, HIV-1 RT K70Q/Q151Mc (Human immunodeficiency virus type 1 group M subtype B, UniProt P03366, A661V/F676L/F715Y/K669Q/Q750M/V674I); experiment: as above; format: biochemical; conditions: K70Q/Q151Mc RT
T3 construct: made in house; host or cells: Escherichia coli BL21
Method: as §4, §5, §6, §7

HIV-1 RT K70Q = target: T4, HIV-1 RT K70Q (Human immunodeficiency virus type 1 group M subtype B, UniProt P03366, K669Q); experiment: as above; format: biochemical; conditions: K70Q RT
T4 construct: made in house; host or cells: Escherichia coli BL21
Method: The reactions were quenched at various times (10 ms to 5 s) by adding EDTA to a final concentration of 50 mM. The amounts of product (P18-dAMP) were quantitated and fit to the following burst equation: [drawing 1] (1) where A is the amplitude of the burst phase that represents the RT-DNA complex at the start of the reaction, k obs is the observed burst rate constant for dNTP incorporation, k ss is the steady state rate constant, and t is the reaction time. The rate constant of the linear phase (kcat) can be estimated by dividing the slope of the linear phase by the enzyme concentration. The active site concentration and template/primer binding affinity (KD-DNA) were determined by plotting the amplitude (A) against the concentration of template/primer. The data were fit using non-linear regression to a quadratic equation: [drawing 2] (2) where KD is the dissociation constant for the RT-DNA complex, and [RT] is the concentration of active polymerase molecules. Subsequent biochemical experiments were performed using corrected active site concentrations, [43].
as §5, §6

Cc1cn([C@H]2C=C[C@@H](CO)O2)c(=O)[nH]c1=O [d4T, stavudine]
EC50 [1]: 18.3 ± 1.53 µM
EC50 [2]: > 100 µM
EC50 (HIV-1 WT): 2.6 ± 0.23 µM
EC50 (HIV-1 Q151Mc/K70N; Human immunodeficiency virus 1, MAGIC-5, Q151Mc/K70N): 25 ± 4 µM
Fold increase in EC50 compared to HIV-1 Q151Mc (HIV-1 Q151Mc/K70N; Q151Mc/K70N vs Q151Mc): (1) fold
EC50 (HIV-1 Q151Mc/K70G): 115 ± 5.1 µM
EC50 (HIV-1 K70Q; Human immunodeficiency virus 1, MAGIC-5, K70Q): 3 ± 0.21 µM
Fold increase in EC50 compared to HIV-1 WT (HIV-1 K70Q; K70Q vs WT): (1.2) fold
EC50 (HIV-1 K70T; Human immunodeficiency virus 1, MAGIC-5, K70T): 2.2 ± 0.17 µM
Fold increase in EC50 compared to HIV-1 WT (HIV-1 K70T; K70T vs WT): (0.8) fold
EC50 (HIV-1 Q151Mc/K70Q): 110 ± 6.6 µM
EC50 (HIV-1 Q151Mc/K70T; Human immunodeficiency virus 1, MAGIC-5, Q151Mc/K70T): 16 ± 2.7 µM
Fold increase in EC50 compared to HIV-1 Q151Mc (HIV-1 Q151Mc/K70T; Q151Mc/K70T vs Q151Mc): (0.6) fold
EC50 (HIV-1 K70N; Human immunodeficiency virus 1, MAGIC-5, K70N): 3.4 ± 0.25 µM
Fold increase in EC50 compared to HIV-1 WT (HIV-1 K70N; K70N vs WT): (1.3) fold
EC50 (HIV-1 K70G; Human immunodeficiency virus 1, MAGIC-5, K70G): 4.3 ± 0.26 µM
Fold increase in EC50 compared to HIV-1 WT (HIV-1 K70G; K70G vs WT): (1.7) fold
EC50 (HIV-1 Q151Mc): 25 ± 2.3 µM
EC50 (HIV-1 K70R; Human immunodeficiency virus 1, MAGIC-5, K70R): 4.3 ± 0.57 µM
Fold increase in EC50 compared to HIV-1 WT (HIV-1 K70R; K70R vs WT): (1.7) fold
EC50 (HIV-1 Q151Mc/K70E; Human immunodeficiency virus 1, MAGIC-5, Q151Mc/K70E): 32 ± 3.6 µM
Fold increase in EC50 compared to HIV-1 Q151Mc (HIV-1 Q151Mc/K70E; Q151Mc/K70E vs Q151Mc): (1.3) fold
EC50 (HIV-1 Q151Mc/K70R; Human immunodeficiency virus 1, MAGIC-5, Q151Mc/K70R): 44 ± 4.5 µM
Fold increase in EC50 compared to HIV-1 Q151Mc (HIV-1 Q151Mc/K70R; Q151Mc/K70R vs Q151Mc): (1.8) fold
EC50 (HIV-1 K70E; Human immunodeficiency virus 1, MAGIC-5, K70E): 16 ± 2.7 µM
Fold increase in EC50 compared to HIV-1 WT (HIV-1 K70E; K70E vs WT): (6.2) fold
EC50 (HIV-1 NL4-3 strain (WT)): 2 ± 0.55 µM

Nc1ncnc2c1ncn2[C@H]1C[C@H](O)[C@@H](COP(=O)(O)OP(=O)(O)OP(=O)(O)O)O1 [dATP]
k pol/Kd (HIV-1 RT WT): 2.4e+06 M⁻¹ s⁻¹ and 2.4e+06 ± 200000 M⁻¹ s⁻¹
k pol (HIV-1 RT WT; T31/P18, 37°C): 6.3 s⁻¹ and 6.3 ± 0.5 s⁻¹
Kd (HIV-1 RT WT; binding to RT-DNA complex): 2.6 ± 0.1 µM
k pol/Kd (HIV-1 RT Q151Mc): 3.3e+06 M⁻¹ s⁻¹ and 3.3e+06 ± 300000 M⁻¹ s⁻¹
k pol (HIV-1 RT Q151Mc; T31/P18, 37°C): 17.9 s⁻¹ and 17.9 ± 0.4 s⁻¹
Kd (HIV-1 RT Q151Mc; binding to RT-DNA complex): 5.4 ± 0.5 µM
k pol/Kd (HIV-1 RT K70Q/Q151Mc): 2.9e+06 M⁻¹ s⁻¹ and 2.9e+06 ± 300000 M⁻¹ s⁻¹
k pol (HIV-1 RT K70Q/Q151Mc; T31/P18, 37°C): 14.6 s⁻¹ and 14.6 ± 1.6 s⁻¹
Kd (HIV-1 RT K70Q/Q151Mc; binding to RT-DNA complex): 5 ± 0.07 µM
k pol (HIV-1 RT K70Q; T31/P18, 37°C): 8.4 ± 0.4 s⁻¹
Kd (HIV-1 RT K70Q; binding to RT-DNA complex): 3.8 ± 0.6 µM
